# Values of other authors as cited in US10610595B2, “Stabilized pharmaceutical formulations of insulin analogues and/or insulin derivatives” (SANOFI, priority 2014, dated 2020).
# Tested on: blood glucose level
# Conditions: Lill, Pharmazie in unserer Zeit 2001
row,Substance,amount corresponding to 1 U
1,human insulin,approximately 35 μg

# Same assay, conditions: product information
row,Substance,amount corresponding to 100 U [mg]
1,insulin aspart,3.5
2,insulin detemir [insulin determir],14.2
3,insulin glargine,3.64
4,insulin glulisine,3.49
5,insulin lispro,3.5
